The test system of one test is SCPJU. As to the kind of experiment: Example II: in-water applied weed control, transplanted paddy rice, greenhouse. The class given is in vivo, Schoenoplectus juncoides (Roxb.) Palla (Japanese bulrush). Here is the method: Weed seeds or nutlets of the desired test plant species were planted in puddled soil (mud) prepared by mixing a shredded, non-sterilized mineral soil (50.5 percent silt, 25.5 percent clay, and 24 percent sand, with a pH of about 7.6 and an organic matter content of about 2.9 percent) and water at a 1:1 volumetric ratio. The prepared mud was dispensed in 365 mL aliquots into 16-ounce (oz.) non-perforated plastic pots with a surface area of 86.59 square centimeters (cm^2) leaving a headspace of 3 centimeters (cm) in each pot. Mud was allowed to dry overnight prior to planting or transplanting. Rice seeds were planted in Sun Gro MetroMix® 306 planting mixture, which typically has a pH of 6.0 to 6.8 and an organic matter content of about 30 percent, in plastic plug trays. Seedlings at the second or third leaf stage of growth were transplanted into 840 mL of mud contained in 32-oz. non-perforated plastic pots with a surface area of 86.59 cm^2 4 days prior to herbicide application. The paddy was created by filling the headspace of the pots with 2.5 to 3 cm of water. When required to ensure good germination and healthy plants, a fungicide treatment and/or other chemical or physical treatment was applied. The plants were grown for 4-22 days in a greenhouse with an approximate 14 hr photoperiod which was maintained at about 29′C during the day and 26° C. during the night. Nutrients were added as Osmocote® (19:6:12, N:P:K+ minor nutrients) at 2 g per 16-oz. pot and 4 g per 32-oz. pot. […]
Treatment requirements for each compound or herbicidal component were calculated based upon the rates being tested, the concentration of active ingredient or acid equivalent in the formulation, an application volume of 2 mL per component per pot, and an application area of 86.59 cm^2 per pot.
For formulated compounds, a measured amount was placed in an individual 100 or 200 mL glass vial and was dissolved in a volume of 1.25% (v/v) Agri-Dex® crop oil concentrate to obtain application solutions. […]

For a further test, the system named is ISCRU. As to the kind of experiment: Example I: postemergence foliar-applied weed control, greenhouse. The following applies: 21 DAA. The class given is in vivo, Ischaemum rugosum Salisb. (saramollagrass). The source says: Seeds or nutlets of the desired test plant species were planted in a soil matrix prepared by mixing a loam or sandy loam soil (e.g., 28.6 percent silt, 18.8 percent clay, and 52.6 percent sand, with a pH of about 5.8 and an organic matter content of about 1.8 percent) and calcareous grit in an 80 to 20 ratio. The soil matrix was contained in plastic pots with a volume of 1 quart and a surface area of 83.6 square centimeters (cm^2). When required to ensure good germination and healthy plants, a fungicide treatment and/or other chemical or physical treatment was applied. The plants were grown for 8-22 days in a greenhouse with an approximate 14 hr photoperiod which was maintained at about 29° C. during the day and 26° C. during the night. Nutrients (Peters Excel® 15-5-15 5-Ca 2-Mg and iron chelate) were applied in the irrigation solution as needed and water was added on a regular basis. Supplemental lighting was provided with overhead metal halide 1000-Watt lamps as necessary. The plants were employed for testing when they reached the first through fourth true leaf stage.
Treatments consisted of the acid or esters of 4-amino-3-chloro-5-fluoro-6-(4-chloro-2-fluoro-3-methoxy-phenyl)pyridine-2-carboxylic acid (Compound A), each formulated as an SC (suspension concentrate), and various herbicidal components alone and in combination. Forms of compound A were applied on an acid equivalent basis.
Other herbicidal components were applied on an active ingredient basis and included very long chain fatty acid (VLCFA) synthesis-inhibiting and fatty acid/lipid synthesis-inhibiting herbicides acetochlor (technical grade material), acetochlor+dichlormid formulated as Topnotch®, pretilachlor (technical grade material), butachlor formulated as Butachlor EC, fentrazamide formulated as Fentrazamide EC, thiobencarb formulated as Bolero® 8EC, cafenstrole formulated as Himeadow® WP or Lapost® Flowable, benfuresate formulated as Full Shot®, dimethenamid-P formulated as Outlook®, indanofan (technical grade material), flufenacet formulated as Define® DF, mefenacet (technical grade material), S-metolachlor formulated as Dual® II Magnum, pethoxamid formulated as Successor® 600, and pyroxasulfone (technical grade material).
Treatment requirements were calculated based upon the rates being tested, the concentration of active ingredient or acid equivalent in the formulation, and a 12 mL application volume at a rate of 187 L/ha.
For treatments comprised of formulated compounds, measured amounts of compounds were placed individually in 25 mL glass vials and diluted in a volume of 1.25% (v/v) Agri-Dex® crop oil concentrated to obtain 12× stock solutions. […]

As to `COc1c(Cl)ccc(-c2nc(C(=O)O)c(Cl)c(N)c2F)c1F` [Compound A Acid, 4-amino-3-chloro-6-(4-chloro-2-fluoro-3-methoxyphenyl)-5-fluoropyridine-2-carboxylic acid], in the test on SCPJU (8.75 gae/ha), the “Visual Weed Control (%) - 20 DAA SCPJU Obs” value is given as 40%.

Take `COc1c(Cl)ccc(-c2nc(C(=O)OCc3ccccc3)c(Cl)c(N)c2F)c1F` [Compound A Benzyl Ester, benzyl ester of 4-amino-3-chloro-5-fluoro-6-(4-chloro-2-fluoro-3-methoxy-phenyl)pyridine-2-carboxylic acid]: the “Visual Weed Control Obs” value was 20% with ISCRU (8 gae/ha) and 0% in the test with ISCRU (16 gae/ha).

In the case of `CCCOCCN(C(=O)CCl)c1c(CC)cccc1CC` [Pretilachlor, 2-chloro-N-(2,6-diethylphenyl)-N-(2-propoxyethyl)acetamide], the figures for the “Visual Weed Control (%) - 20 DAA SCPJU Obs” value in the test on SCPJU (75 gai/ha) and in the test on SCPJU (150 gai/ha) were 50% and 20%, respectively.

The values are drawn from patent US20130310256A1, “HERBICIDAL COMPOSITIONS COMPRISING 4-AMINO-3-CHLORO-5-FLUORO-6-(4-CHLORO-2-FLUORO-3-METHOXYPHENYL) PYRIDINE-2-CARBOXYLIC ACID OR A DERIVATIVE THEREOF AND VLCFA AND LIPID SYNTHESIS INHIBITING HERBICIDES” (DOW AGROSCIENCES LLC, priority 2008, published 2013).
